Laboratory results as given in PubChem BioAssay AID2060888 (Molecular Pharmacology Branch, DTP, NCI, 2025).

Test system: 695427-040-R-J1-PDC complex spheroid viability
Test: Anticancer human tumor 695427-040-R-J1-PDC patient-derived colon adenocarcinoma cell line growth inhibition [RAS]
Details: for IC50: curve of first compound; for viability, T/C: stronger effect = lower value
Outline: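 Agents were tested in combination matrices in half-log decrements from a top concentration at or near clinical Cmax (10 microM if undetermined). Targets were multi-cell spheroids of tumour lines plus HUVEC and MSC stromal cells.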

[1] = second compound 0.000949 µM, first compound 0.0316 µM
[2] = second compound 0.000949 µM, first compound 0.1 µM
[3] = second compound 0.000949 µM, first compound 0.316 µM
[4] = second compound 0.000949 µM, first compound 1 µM
[5] = second compound 0.003 µM, first compound 0.0316 µM
[6] = second compound 0.003 µM, first compound 0.1 µM
[7] = second compound 0.003 µM, first compound 0.316 µM
[8] = second compound 0.003 µM, first compound 1 µM
[9] = second compound 0.00949 µM, first compound 0.0316 µM
[10] = second compound 0.00949 µM, first compound 0.1 µM
[11] = second compound 0.00949 µM, first compound 0.316 µM
[12] = second compound 0.00949 µM, first compound 1 µM
[13] = second compound 0.03 µM, first compound 0.0316 µM
[14] = second compound 0.03 µM, first compound 0.1 µM
[15] = second compound 0.03 µM, first compound 0.316 µM
[16] = second compound 0.03 µM, first compound 1 µM
[17] = second compound 0.0949 µM, first compound 0.0316 µM
[18] = second compound 0.0949 µM, first compound 0.1 µM
[19] = second compound 0.0949 µM, first compound 0.316 µM
[20] = second compound 0.0949 µM, first compound 1 µM
[21] = second compound 0.3 µM, first compound 0.0316 µM
[22] = second compound 0.3 µM, first compound 0.1 µM
[23] = second compound 0.3 µM, first compound 0.316 µM
[24] = second compound 0.3 µM, first compound 1 µM
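Also: viability read after seven days of drug exposure.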
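For viability, T/C in this document: 100% = DMSO vehicle control viability.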

`C=CC(=O)Nc1cc(Nc2nccc(-c3cn(C)c4ccccc34)n2)c(OC)cc1N(C)CCN(C)C` + CCn1c(-c2cc(N3CCN(C)CC3)cnc2C(C)OC)c2c3cc(ccc31)-c1csc(n1)CC(NC(=O)C1CC1C)C(=O)N1CCCC(N1)C(=O)OCC(C)(C)C2 gave an IC50 (second compound 0.000949 µM) of 523 nM, an IC50 (second compound 0.003 µM) of 363 nM and an IC50 (second compound 0.00949 µM) of 147 nM. For the same compound, the IC50 (second compound 0.03 µM) was 44.3 nM, the IC50 (second compound 0.0949 µM) was under 3.16 nM and the IC50 (second compound 0.3 µM) was under 3.16 nM. It also gave a viability, T/C (second compound 0.000949 µM, first compound 0.00316 µM) of 104%, a viability, T/C (second compound 0.000949 µM, first compound 0.01 µM) of 91.1% and a viability, T/C [1] of 75.1%. It also gave a viability, T/C [2] of 82.8%, a viability, T/C [3] of 58.1% and a viability, T/C [4] of 37.1%. For the same compound, the viability, T/C (second compound 0.003 µM, first compound 0.00316 µM) was 103%, the viability, T/C (second compound 0.003 µM, first compound 0.01 µM) was 88.7% and the viability, T/C [5] was 68%. The viability, T/C [6] was 74%, the viability, T/C [7] was 52.3% and the viability, T/C [8] was 35.9%. For the same compound, the viability, T/C (second compound 0.00949 µM, first compound 0.00316 µM) was 91.7%, the viability, T/C (second compound 0.00949 µM, first compound 0.01 µM) was 78.3% and the viability, T/C [9] was 68.9%. For the same compound, the viability, T/C [10] was 54.4%, the viability, T/C [11] was 41.5% and the viability, T/C [12] was 24.6%. The viability, T/C (second compound 0.03 µM, first compound 0.00316 µM) was 58.9%, the viability, T/C (second compound 0.03 µM, first compound 0.01 µM) was 60.1% and the viability, T/C [13] was 51.3%. The viability, T/C [14] was 42.8%, the viability, T/C [15] was 36.9% and the viability, T/C [16] was 21.2%. The viability, T/C (second compound 0.0949 µM, first compound 0.00316 µM) was 46.6%, the viability, T/C (second compound 0.0949 µM, first compound 0.01 µM) was 45.7% and the viability, T/C [17] was 34.2%. The viability, T/C [18] was 36.9%, the viability, T/C [19] was 24.4% and the viability, T/C [20] was 17.3%. The viability, T/C (second compound 0.3 µM, first compound 0.00316 µM) was 33.3%, the viability, T/C (second compound 0.3 µM, first compound 0.01 µM) was 34.9% and the viability, T/C [21] was 29.7%. The viability, T/C [22] was 30.1%, the viability, T/C [23] was 26.9% and the viability, T/C [24] was 16.1%.
Compound `Nc1ccn(C2OC(CO)C(O)C2(F)F)c(=O)n1` (stereo unspecified) + C=CC(=O)N1CCN(c2nc(OCC3CCCN3C)nc3c(F)c(-c4nc(N)cc(C)c4C(F)(F)F)c(Cl)cc23)C(C)C1 has an IC50 (second compound 0.00316 µM) of over 1000 nM, an IC50 (second compound 0.01 µM) of over 1000 nM and an IC50 (second compound 0.0316 µM) of over 1000 nM. For the same compound, the IC50 (second compound 0.1 µM) was over 1000 nM, the IC50 (second compound 0.316 µM) was over 1000 nM and the IC50 (second compound 1 µM) was over 1000 nM. The viability, T/C (second compound 0.00316 µM, first compound 0.00316 µM) was 93.3%, the viability, T/C (second compound 0.00316 µM, first compound 0.01 µM) was 88.1% and the viability, T/C (second compound 0.00316 µM, first compound 0.0316 µM) was 77.5%. The viability, T/C (second compound 0.00316 µM, first compound 0.1 µM) was 84.9%, the viability, T/C (second compound 0.00316 µM, first compound 0.316 µM) was 72.1% and the viability, T/C (second compound 0.00316 µM, first compound 1 µM) was 69.6%. For the same compound, the viability, T/C (second compound 0.01 µM, first compound 0.00316 µM) was 94.4%, the viability, T/C (second compound 0.01 µM, first compound 0.01 µM) was 87.2% and the viability, T/C (second compound 0.01 µM, first compound 0.0316 µM) was 84.3%. The viability, T/C (second compound 0.01 µM, first compound 0.1 µM) was 74.3%, the viability, T/C (second compound 0.01 µM, first compound 0.316 µM) was 76.2% and the viability, T/C (second compound 0.01 µM, first compound 1 µM) was 69.5%. It also gave a viability, T/C (second compound 0.0316 µM, first compound 0.00316 µM) of 92.9%, a viability, T/C (second compound 0.0316 µM, first compound 0.01 µM) of 80.5% and a viability, T/C (second compound 0.0316 µM, first compound 0.0316 µM) of 77.9%. The viability, T/C (second compound 0.0316 µM, first compound 0.1 µM) was 73.8%, the viability, T/C (second compound 0.0316 µM, first compound 0.316 µM) was 76.5% and the viability, T/C (second compound 0.0316 µM, first compound 1 µM) was 70.8%. It also gave a viability, T/C (second compound 0.1 µM, first compound 0.00316 µM) of 96.9%, a viability, T/C (second compound 0.1 µM, first compound 0.01 µM) of 78.4% and a viability, T/C (second compound 0.1 µM, first compound 0.0316 µM) of 77.8%. For the same compound, the viability, T/C (second compound 0.1 µM, first compound 0.1 µM) was 80.2%, the viability, T/C (second compound 0.1 µM, first compound 0.316 µM) was 74.2% and the viability, T/C (second compound 0.1 µM, first compound 1 µM) was 72.9%. It also gave a viability, T/C (second compound 0.316 µM, first compound 0.00316 µM) of 93.8%, a viability, T/C (second compound 0.316 µM, first compound 0.01 µM) of 84.2% and a viability, T/C (second compound 0.316 µM, first compound 0.0316 µM) of 91.3%. For the same compound, the viability, T/C (second compound 0.316 µM, first compound 0.1 µM) was 77.5%, the viability, T/C (second compound 0.316 µM, first compound 0.316 µM) was 80.4% and the viability, T/C (second compound 0.316 µM, first compound 1 µM) was 69.7%. For the same compound, the viability, T/C (second compound 1 µM, first compound 0.00316 µM) was 92.7%, the viability, T/C (second compound 1 µM, first compound 0.01 µM) was 85.5% and the viability, T/C (second compound 1 µM, first compound 0.0316 µM) was 77.9%. The viability, T/C (second compound 1 µM, first compound 0.1 µM) was 81.5%, the viability, T/C (second compound 1 µM, first compound 0.316 µM) was 86.9% and the viability, T/C (second compound 1 µM, first compound 1 µM) was 69.7%.
For `NC1c2ccccc2OC12CCN(c1cnc3c(N4CCCc5ncccc54)n[nH]c3n1)CC2` (stereo unspecified) + CCn1c(-c2cc(N3CCN(C)CC3)cnc2C(C)OC)c2c3cc(ccc31)-c1csc(n1)CC(NC(=O)C1CC1C)C(=O)N1CCCC(N1)C(=O)OCC(C)(C)C2, the IC50 (second compound 0.000949 µM) was 375 nM, the IC50 (second compound 0.003 µM) was 209 nM and the IC50 (second compound 0.00949 µM) was 72 nM. For the same compound, the IC50 (second compound 0.03 µM) was under 31.6 nM, the IC50 (second compound 0.0949 µM) was under 31.6 nM and the IC50 (second compound 0.3 µM) was under 31.6 nM. It also gave a viability, T/C [1] of 74.8%, a viability, T/C [2] of 70.1% and a viability, T/C [3] of 53.9%. The viability, T/C [4] was 29.2%, the viability, T/C (second compound 0.000949 µM, first compound 3.16 µM) was 32.4% and the viability, T/C (second compound 0.000949 µM, first compound 10 µM) was 24.9%. The viability, T/C [5] was 73.9%, the viability, T/C [6] was 59.2% and the viability, T/C [7] was 47%. It also gave a viability, T/C [8] of 24.4%, a viability, T/C (second compound 0.003 µM, first compound 3.16 µM) of 23.5% and a viability, T/C (second compound 0.003 µM, first compound 10 µM) of 20.5%. For the same compound, the viability, T/C [9] was 62.2%, the viability, T/C [10] was 45.3% and the viability, T/C [11] was 22.5%. For the same compound, the viability, T/C [12] was 25.1%, the viability, T/C (second compound 0.00949 µM, first compound 3.16 µM) was 18.2% and the viability, T/C (second compound 0.00949 µM, first compound 10 µM) was 15.8%. For the same compound, the viability, T/C [13] was 45.4%, the viability, T/C [14] was 36% and the viability, T/C [15] was 27.9%. For the same compound, the viability, T/C [16] was 21.1%, the viability, T/C (second compound 0.03 µM, first compound 3.16 µM) was 13.2% and the viability, T/C (second compound 0.03 µM, first compound 10 µM) was 16.8%. For the same compound, the viability, T/C [17] was 39.2%, the viability, T/C [18] was 27.3% and the viability, T/C [19] was 22.3%. For the same compound, the viability, T/C [20] was 15.2%, the viability, T/C (second compound 0.0949 µM, first compound 3.16 µM) was 14.1% and the viability, T/C (second compound 0.0949 µM, first compound 10 µM) was 13.1%. For the same compound, the viability, T/C [21] was 27.5%, the viability, T/C [22] was 27% and the viability, T/C [23] was 20.7%. It also gave a viability, T/C [24] of 14.5%, a viability, T/C (second compound 0.3 µM, first compound 3.16 µM) of 10.2% and a viability, T/C (second compound 0.3 µM, first compound 10 µM) of 15.5%.
